Experimental data reported in paper PMC5871694, “S-Adenosyl-L-Homocysteine Hydrolase Inhibition by a Synthetic Nicotinamide Cofactor Biomimetic” (Frontiers in Microbiology, 2018).
Values joined by “and” are separate entries in the source; they are usually repeats but may differ in a detail not shown here. Identical values can stand only once. Like-named read-outs stand apart in the source and are kept apart here.

What was measured:
[1] = physiological pH, cited from earlier work
[2] = molecular target: T1, Bradyrhizobium elkanii SAHase (BeSAHase) (Bradyrhizobium elkanii, UniProt A0A087WNH6); assay: Photometric DTNB kinetic assay in the hydrolytic direction (SAH hydrolysis); assay type: biochemical
T1 construct: His-tag (N); made in house; host or cells: E. coli
T1 sequence (A0A087WNH6 1-473): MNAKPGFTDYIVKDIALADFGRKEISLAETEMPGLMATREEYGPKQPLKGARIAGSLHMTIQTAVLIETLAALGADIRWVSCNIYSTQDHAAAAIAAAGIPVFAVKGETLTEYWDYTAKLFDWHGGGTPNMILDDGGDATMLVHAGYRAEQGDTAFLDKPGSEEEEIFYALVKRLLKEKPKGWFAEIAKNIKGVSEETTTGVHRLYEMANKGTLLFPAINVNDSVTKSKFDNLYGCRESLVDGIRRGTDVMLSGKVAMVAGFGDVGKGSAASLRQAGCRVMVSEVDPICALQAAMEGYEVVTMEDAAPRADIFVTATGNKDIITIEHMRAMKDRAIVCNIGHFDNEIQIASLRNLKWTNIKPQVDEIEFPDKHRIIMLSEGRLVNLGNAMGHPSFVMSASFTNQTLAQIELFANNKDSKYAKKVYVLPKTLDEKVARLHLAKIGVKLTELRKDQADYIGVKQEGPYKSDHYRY
Method: Reactions were performed at room temperature in 100 μL sodium phosphate buffer (100 mM, pH 8), supplemented with 1 mM EDTA, 0.2 mM 5,5′-dithiobis(2-nitrobenzoic acid) (DTNB) and SAHase. In experiments with defined NAD^+ concentrations, apo-SAHase was pre-incubated with the respective amount of cofactor for at least 2 h, to ensure that the binding equilibrium was reached before initiation of the reaction. Enzyme concentrations were adjusted according to specific activity, to avoid exceeding maximum reaction rates (vmax) of 0.01 mM⋅min^-1. Higher reaction rates would lead to product inhibition, caused by the accumulation of Ado, in the time frame of the measurement. Reactions were initiated by addition of the substrate (SAH). The reaction rate was monitored photometrically, using DTNB to detect the formation of Hcy. Experiments were carried out in a double-beam UV-vis spectrophotometer (Specord 205, Analytik Jena). Initial reaction rates (v0) were calculated from the first 20–25 s of the reaction, based on the increase of extinction (ΔE) at 412 nm over time (Δt) in a quartz cuvette with a path length (d) of 1 cm, assuming an extinction coefficient (ε) of 14,150 L cm^-1 mol^-1 for the product: v0 = ΔE ⋅ ε412 nm–1 ⋅ d^-1 ⋅ Δt^-1. The assay was validated by comparison to data obtained with the coupled photometric assay described by [Kailing et al. (2017)]. The latter assay was not used in this study, since NCB 10 contributes to oxidation of the monitoring compound NADH in a non-enzymatic way, thereby compromising the reliability of the measurement.
Initial reaction rates were plotted against the concentration of inhibitor and a linear regression analysis was performed as described above for the HPLC assay. The inhibitory constant (Ki) was calculated from the following relation, where KM, [E] and [S] denote the Michaelis–Menten constant, concentration of enzyme and of substrate, respectively: IC50 = Ki ⋅ KM–1 ) + [E]0/2 ([Cha, 1975]). Characterization of the inhibition model was done by measuring Michaelis–Menten kinetics in the presence of varying inhibitor concentrations. KM and maximum reaction rate (vmax) values were obtained by non-linear Michaelis–Menten fitting using GraphPad Prism.
Kinetic-based binding studies to determine the half-maximum effective concentration (EC50) for NAD^+ were carried out with 330 nM SAHase, after pre-incubation with the respective amount of NAD^+, and constant substrate concentrations (0.2 mM SAH). Initial reaction rates were plotted against the NAD^+ concentration and a hyperbolic fit was calculated using GraphPad Prism. The EC50 was calculated as the NAD^+ concentration leading to half-maximum activation of BeSAHase.

[3] = molecular target: T1, Bradyrhizobium elkanii SAHase (BeSAHase); assay: HPLC-based endpoint activity assay in the direction of SAH synthesis; assay type: biochemical
Method: HPLC-based activity measurements in the direction of SAH synthesis were carried out as described by [Kailing et al. (2017)], with constant substrate concentrations (0.5 mM) of both Ado and Hcy. For the cofactor screenings, the assay was supplemented with 2 mM of the respective compound and reactions were initiated with ∼10 μg (700 nM final concentrations in assay) of apo- or holo-BeSAHase, respectively. One set of reactions was terminated after 30 min, the other after 17 h. […] Reactions were terminated after 30 min. Conversions were derived from HPLC chromatograms as described before ([Kailing et al., 2017]), plotted against the concentration of inhibitor and a linear regression analysis was performed with the GraphPad Prism software (v. 6.01). The IC50 was calculated as the concentration leading to half-maximum effect of the inhibitor.

[4] = molecular target: T1, Bradyrhizobium elkanii SAHase (BeSAHase); assay: Isothermal titration calorimetry (ITC); assay type: binding; conditions: for binding to apo-BeSAHase: titration of apo-BeSAHase; for binding to holo-BeSAHase: titration of holo-BeSAHase; for KD: apo-BeSAHase titrated with cofactor, 25°C, pH 7
Method: Interaction analyses by ITC were performed with an Affinity ITC microcalorimeter (Low Volume, 24 K Gold Cell; TA Instruments). Prior to measurements, protein was dialyzed into 20 mM MOPS buffer containing 150 mM NaCl. The buffer was adjusted to pH 7 at room temperature, but dialysis was carried out at 4°C. To ensure equal buffer conditions, ligands were dissolved and diluted in the same buffer that was used for the last step of protein dialysis. Measurements were carried out at a constant cell temperature of 25°C. The cell was equilibrated with 40–90 μM SAHase for at least 10 min before the first injection of the respective ligand. The volume of the injections was varied between 2 and 4 μL, depending on the experiment and ligand concentration. The spacing between injections was adjusted according to the time required to reach the binding equilibrium (usually 240–500 s). Ligand titration was continued until peak sizes remained constant, representing only the enthalpy of dilution. The latter was subtracted from the raw data using a mock titration of the ligand into buffer only. Data evaluation was performed with the NanoAnalyze software (v. 3.7.5; TA Instruments), using the model “independent set of multiple binding sites” ([Freire et al., 1990]) for KD determination.

bovine liver SAHase = molecular target: bovine liver SAHase; set-up: method as in Porter and Boyd, 1992; conditions: cited from earlier work
SAHase from humans = molecular target: SAHase from humans; set-up: method as in Li Q.-S. et al., 2007; conditions: human SAHase; ref Li Q.-S. et al., 2007; cited from earlier work
[5] = molecular target: SAHase from Trypanosoma cruzi; set-up: method as in Li Q.-S. et al., 2007; conditions: ref Li Q.-S. et al., 2007; cited from earlier work
[6] = calculated from IC50, KM, enzyme and substrate concentration
[7] = ref Porter and Boyd, 1992, read-out: KD (estimated)

**Q.** With `N#Cc1ccc[n+](Cc2ccccc2)c1` [NCB 10] as the molecule, how does the redox potential ([1]; 10ox/10red, ref Ostovic et al., 1985) read?
**A.** Its redox potential is -220 mV.

**Q.** What about the IC50 ([2]; 285 nM NAD+-saturated BeSAHase, 0.2 mM SAH, linear regression) of the same molecule?
**A.** The IC50 was ~14000 µM and 14400 µM.

**Q.** What about the inhibition mechanism ([2]; Michaelis-Menten kinetics with varying inhibitor concentrations) of the same molecule?
**A.** The inhibition mechanism was “non-competitive”.

**Q.** And the Ki [2, 6]?
**A.** The Ki was roughly 2000 µM.

**Q.** And the “Ki,hydrolysis” value [2, 6]?
**A.** Its value is “millimolar range”.

**Q.** What about the IC50 ([3]; 100 nM NAD+-saturated SAHase, 0.5 mM Ado and Hcy, 30 min, linear regression) of the same molecule?
**A.** The IC50 was ~1400 µM and 1440 µM.

**Q.** And the inhibition at 2000 µM ([3]; holo-SAHase in the presence of excess NAD+, 2 mM compound, read-out: inhibition of substrate conversion)?
**A.** The inhibition at 2000 µM was roughly 75%.

**Q.** What about the “binding to apo-BeSAHase” value [4] of the same molecule?
**A.** The value was “small binding enthalpies”.

**Q.** And the “binding to apo-BeSAHase” value ([4]; listed as 10)?
**A.** The value was “Neither titration of holo-, nor of apo-SAHase gave any hint of a binding event”.

**Q.** And the “binding to holo-BeSAHase” value [4]?
**A.** Its value is “small binding enthalpies”.

**Q.** What about the “binding to holo-BeSAHase” value ([4]; listed as 10) of the same molecule?
**A.** Its value is “Neither titration of holo-, nor of apo-SAHase gave any hint of a binding event”.

**Q.** For `C=C1OC(n2cnc3c(N)ncnc32)C(O)C1=O` (stereo not shown) [4′,5′-dehydro-3′-ketoadenosine], which Kd (bovine liver SAHase; [7]) is on record?
**A.** The Kd was 0.0003 µM.

**Q.** For `Nc1ncnc2c1ncn2C1OC(CO)C(=O)C1O` (stereo not shown) [3′-ketoadenosine], which Kd (bovine liver SAHase; [7]) is on record?
**A.** Its Kd is 0.0006 µM.

**Q.** With `NC(=O)C1=CN([C@@H]2O[C@H](COP(=O)(O)OP(=O)(O)OC[C@H]3O[C@@H](n4cnc5c(N)ncnc54)[C@H](O)[C@@H]3O)[C@@H](O)[C@H]2O)C=CC1` [NADH] as the molecule, how does the KD range (SAHase from humans) read?
**A.** The KD range was “nanomolar”.

**Q.** What about the KD [4] of the same molecule?
**A.** The KD was “low micromolar range”.

**Q.** And the KD range [5]?
**A.** Its KD range is “nanomolar”.

**Q.** Which results are given for `NC(=O)c1ccc[n+]([C@@H]2O[C@H](COP(=O)([O-])OP(=O)(O)OC[C@H]3O[C@@H](n4cnc5c(N)ncnc54)[C@H](O)[C@@H]3O)[C@@H](O)[C@H]2O)c1` [NAD^+, nicotinamide adenine dinucleotide, reference compound]?
**A.** redox potential ([1]; NAD+/NADH, ref Burton and Wilson, 1953): -320 mV; EC50 ([2]; 330 nM apo-SAHase pre-incubated with NAD+, 0.2 mM SAH, hyperbolic fit, read-out: EC50 (half-maximum activation of BeSAHase)): ~10 µM and 11.2 µM; reconstitution of activity of apo-SAHase ([3]; apo-BeSAHase, 2 mM compound, 0.5 mM Ado and Hcy, 30 min and 17 h): recovered highly active enzyme; time to full substrate conversion after re-supplementation of apo-SAHase ([3]; apo-BeSAHase, HPLC-based assay conditions): less than 30 min; KD [4]: low micromolar range

**Q.** Which Kd (bovine liver SAHase; ref Porter and Boyd, 1992, read-out: KD) does the source give for `Nc1ncnc2c1ncn2[C@@H]1O[C@H](CO)[C@@H](O)[C@H]1O` [Ado, adenosine] here?
**A.** Its Kd is 9 µM.
